8 molecules from PubChem BioAssay (NCI) can be followed below.

Where “and” joins values, the source holds several entries; their conditions need not be identical. Equal values may be shown once.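 Assay format: 96-well plates, 48-hour exposure. At the GI50, growth is halved. TGI: total growth inhibition.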

Among the test systems are NCI-H23 lung; SK-MEL-2 melanoma; MCF7 breast; SK-MEL-28 melanoma; IGROV1 ovarian; TK-10 renal; HCT-116 colon; SK-MEL-5 melanoma; MDA-MB-435; ACHN renal.
Holding throughout (assay): NCI-60 cell line screen, 48 h

Consider `COc1ccc(-c2nc(-c3nc4ccc(C)cc4[nH]3)c3ccccn23)cc1`, for which the GI50 in the test with NCI-H23 lung was 3.85 µM; in the test with SK-MEL-2 melanoma, 2.51 µM; with MCF7 breast, 2700 nM; in the test on SK-MEL-28 melanoma it was 4.61 µM; in the test on IGROV1 ovarian it was 2180 nM; in the test on TK-10 renal, 3.39 µM. Further, the GI50 was 3.26 µM in the test on HCT-116 colon, 1390 nM in the test on SK-MEL-5 melanoma and 2300 nM with MDA-MB-435. The TGI is greater than 100 µM in the test with NCI-H23 lung; 5.71 µM with SK-MEL-2 melanoma; greater than 100 µM with MCF7 breast; greater than 100 µM with SK-MEL-28 melanoma; 6.12 µM with IGROV1 ovarian; 9.22 µM in the test with TK-10 renal. Besides, the TGI in the test on HCT-116 colon stood at 9.46 µM; with SK-MEL-5 melanoma, 2.72 µM; in the test on MDA-MB-435 it was 8.46 µM.
With `Cc1c2c(nn1-c1ccc(S(=O)(=O)/N=C3\SCC(=O)N3C(=O)c3ccccc3)cc1)-c1ccccc1CC2`, the GI50 in the test on NCI-H23 lung was 27.7 µM; with SK-MEL-2 melanoma, greater than 100 µM; in the test on SK-MEL-28 melanoma it was 52.5 µM; in the test with IGROV1 ovarian it was greater than 100000 nM; in the test on ACHN renal it was 24.6 µM; in the test on TK-10 renal it was 98 µM. Besides, the GI50 in the test on HCT-116 colon was 26.4 µM; in the test on SK-MEL-5 melanoma, 25100 nM; in the test on MDA-MB-435, 26100 nM. Further, the TGI in the test on NCI-H23 lung is 73.2 µM; in the test on SK-MEL-2 melanoma it was greater than 100 µM; with SK-MEL-28 melanoma, greater than 100 µM; with IGROV1 ovarian, greater than 100 µM; in the test on ACHN renal, 70.2 µM; with TK-10 renal, greater than 100 µM. In addition, the TGI in the test with HCT-116 colon amounted to 58.8 µM; in the test on SK-MEL-5 melanoma, 48.9 µM; in the test with MDA-MB-435, 60.8 µM.
For `COc1ccc(-n2c(SCc3cc(OC)c(OC)c(OC)c3)nc3ccc(C)cc3c2=O)cc1`, the GI50 in the test on NCI-H23 lung is 32.7 µM; with SK-MEL-2 melanoma it was 8.73 µM; in the test with MCF7 breast it was 3710 nM; in the test with SK-MEL-28 melanoma it was 25.9 µM; in the test with IGROV1 ovarian, greater than 100000 nM; in the test with ACHN renal it was 42.9 µM. Moreover, the GI50 is 3.38 µM in the test on HCT-116 colon, 3580 nM in the test on SK-MEL-5 melanoma and 1880 nM in the test with MDA-MB-435. Further, the TGI in the test on NCI-H23 lung, in the test on SK-MEL-2 melanoma, in the test with MCF7 breast, in the test with SK-MEL-28 melanoma, in the test with IGROV1 ovarian and in the test on ACHN renal was greater than 100 µM in each case. The figures for the TGI with HCT-116 colon, in the test with SK-MEL-5 melanoma and in the test on MDA-MB-435 were greater than 100 µM, greater than 100 µM and 4.72 µM, respectively.
`COc1ccc2cc(C(=O)/C=C/c3cccc(OC)c3OC)ccc2c1`: the GI50 in the test on NCI-H23 lung was 11.2 µM; with SK-MEL-2 melanoma, 21.3 µM; in the test on MCF7 breast, 455 nM; with SK-MEL-28 melanoma, 19.4 µM; in the test with ACHN renal, 8.38 µM; in the test with TK-10 renal, 25.3 µM. Moreover, the GI50 in the test with HCT-116 colon is 3.62 µM; with SK-MEL-5 melanoma, 14300 nM; in the test with MDA-MB-435, 5160 nM. For the same molecule, the TGI came out at 25.3 µM in the test on NCI-H23 lung; 40.3 µM in the test on SK-MEL-2 melanoma; 22.9 µM with MCF7 breast; 44.5 µM in the test with SK-MEL-28 melanoma; 22.2 µM in the test on ACHN renal; 65.1 µM with TK-10 renal. The TGI in the test with HCT-116 colon was determined as 13.3 µM; with SK-MEL-5 melanoma it was 27.4 µM; in the test on MDA-MB-435 it was 29.7 µM.
For the molecule `COc1cccc(NCc2nnc(Nc3ccc(Cl)cc3)c3ccccc23)c1`, the GI50 with NCI-H23 lung was 1.22 µM; in the test with SK-MEL-2 melanoma, 0.708 µM; with MCF7 breast it was 938 nM; in the test on SK-MEL-28 melanoma, 2.62 µM; in the test on IGROV1 ovarian, 904 nM; with ACHN renal, 1.56 µM. The GI50 in the test with HCT-116 colon was 0.881 µM; in the test with SK-MEL-5 melanoma, 819 nM; in the test with MDA-MB-435, 739 nM. In addition, the TGI with NCI-H23 lung is 6.74 µM; with SK-MEL-2 melanoma, 3.98 µM; in the test on MCF7 breast it was 6.4 µM; in the test on SK-MEL-28 melanoma, 6.17 µM; in the test on IGROV1 ovarian, 6.3 µM; with ACHN renal, 24.4 µM. Further, the values for the TGI with HCT-116 colon, in the test on SK-MEL-5 melanoma and in the test on MDA-MB-435 were 4.2 µM, 4.18 µM and 4.38 µM, respectively.
Consider `CCCCCCCCCCC(O)C1CCC(C2CCC(C(O)CCCCC(O)CCCCCC(O)CC3=CC(C)OC3=O)O2)O1` (centres undefined), for which the GI50 is 0.0144 µM with NCI-H23 lung; 3.62 µM with SK-MEL-2 melanoma; 23500 nM in the test with MCF7 breast; 4.28 µM in the test with SK-MEL-28 melanoma; 1.59 µM in the test with ACHN renal; 1.98 µM with TK-10 renal. The results for the GI50 in the test on HCT-116 colon, in the test on SK-MEL-5 melanoma and in the test with MDA-MB-435 were 1.04 µM, 1830 nM and 1510 nM, respectively. For the same molecule, the TGI is greater than 25 µM in the test on NCI-H23 lung; greater than 25 µM in the test with SK-MEL-2 melanoma; greater than 25 µM in the test with MCF7 breast; greater than 25 µM in the test with SK-MEL-28 melanoma; 7.79 µM and > 25 µM with ACHN renal; greater than 25 µM with TK-10 renal. For the same molecule, the TGI in the test with HCT-116 colon was greater than 25 µM; in the test on SK-MEL-5 melanoma, 7.33 µM and > 25 µM; in the test on MDA-MB-435, 9.96 µM and > 25 µM.
`COc1ccc(C2CC(=O)c3c(O)c(OC)c(OC)c(OC)c3O2)c(O)c1` (centres undefined): the GI50 with NCI-H23 lung is 0.392 µM; in the test with SK-MEL-2 melanoma, 0.0809 µM; with MCF7 breast, 46.2 nM; with SK-MEL-28 melanoma, 10.5 µM; with IGROV1 ovarian, 535 nM; with ACHN renal, 1.2 µM. Further, the GI50 in the test with TK-10 renal was 4.96 µM; in the test with HCT-116 colon, 0.053 µM; in the test on SK-MEL-5 melanoma, 67.3 nM. The TGI in the test on NCI-H23 lung amounted to 18.6 µM; with SK-MEL-2 melanoma, 23.4 µM; with MCF7 breast, 15.7 µM; in the test on SK-MEL-28 melanoma it was 25.6 µM; in the test with IGROV1 ovarian it was 39.6 µM; with ACHN renal, 58.2 µM. For the same molecule, the TGI with TK-10 renal came to 49 µM; in the test with HCT-116 colon, 60.9 µM; in the test on SK-MEL-5 melanoma, 2.03 µM.
`N#C/C(C(=S)Nc1ccccc1)=C1/NN=C2c3ccccc3C(=O)NN21`: the GI50 is 21 µM in the test on SK-MEL-2 melanoma; 22800 nM in the test with MCF7 breast; 25.3 µM in the test on SK-MEL-28 melanoma; 35600 nM with IGROV1 ovarian; 35.5 µM in the test on ACHN renal; 21.2 µM in the test on TK-10 renal. Besides, the GI50 with HCT-116 colon is 29.2 µM; in the test with SK-MEL-5 melanoma, 17000 nM; with MDA-MB-435 it was 7800 nM. Also, the TGI with SK-MEL-2 melanoma is 53.8 µM; in the test with MCF7 breast, 77.5 µM; with SK-MEL-28 melanoma it was 97.7 µM; in the test on IGROV1 ovarian it was greater than 100 µM; with ACHN renal, greater than 100 µM; in the test on TK-10 renal, 50.4 µM. The TGI is greater than 100 µM with HCT-116 colon, 41.1 µM in the test on SK-MEL-5 melanoma and 24.3 µM in the test on MDA-MB-435.
